From patent publication US20170355691A1, “PESTICIDALLY ACTIVE HETEROCYCLIC DERIVATIVES WITH SULPHUR CONTAINING SUBSTITUENTS” (Syngenta Participations AG, priority 2015, published 2017) come the findings set out here.

Data set [1] concerns Spodoptera littoralis (Egyptian cotton leaf worm). Kind of data set: Activity against Spodoptera littoralis, cotton leaf disc spray (Example B1). In kind it is in vivo. The settings on record: foliar, 72 h, L1 larvae on cotton leaf discs, 3 days after infestation, read-out: control in at least one of the three categories (mortality, anti-feedancy or growth inhibition). How it is done: Example B1: Activity Against Spodoptera littoralis (Egyptian Cotton Leaf Worm)
Cotton leaf discs were placed on agar in 24-well microtiter plates and sprayed with aqueous test solutions prepared from 10′000 ppm DMSO stock solutions. After drying the leaf discs were infested with five L1 larvae. The samples were assessed for mortality, anti-feedant effect, and growth inhibition in comparison to untreated samples 3 days after infestation. Control of Spodoptera littoralis by a test sample is when at least one of mortality, anti-feedant effect, and growth inhibition is higher than the untreated sample. The following compounds gave an effect of at least 80% control in at least one of the three categories (mortality, anti-feedancy or growth inhibition) at an application rate of 200 ppm: P1.2, P1.3, P1.6, P1.7, P1.8, P1.9, P1.10, P1.12, P1.13, P1.14, P1.15, P1.16, P1.17 and P1.18.

The test system of data set [2] is Plutella xylostella (diamond back moth). Briefly: Activity against Plutella xylostella, artificial diet (Example B2). In kind it is in vivo. Conditions: 120 h, L2 larvae on artificial diet, 5 days after infestation, read-out: effect in at least one of the two categories (mortality or growth inhibition). How it is done:
Example B2: Activity Against Plutella xylostella (Diamond Back Moth)
24-well microtiter plates with artificial diet were treated with aqueous test solutions prepared from 10′000 ppm DMSO stock solutions by pipetting. After drying, the plates were infested with L2 larvae (10 to 15 per well). The samples were assessed for mortality and growth inhibition in comparison to untreated samples 5 days after infestation. The following compounds gave an effect of at least 80% in at least one of the two categories (mortality or growth inhibition) at an application rate of 200 ppm: P1.3, P1.6, P1.7, P1.8, P1.9, P1.13, P1.14, P1.15, P1.16, P1.17 and P1.18.

Data set [3] deals with Diabrotica balteata (corn root worm). Briefly: Activity against Diabrotica balteata, maize sprouts (Example B3). It counts as in vivo. Conditions: 96 h, L2 larvae on maize sprouts, 4 days after infestation, read-out: effect in at least one of the two categories (mortality or growth inhibition). How it is done: Example B3: Activity Against Diabrotica balteata (Corn Root Worm)
Maize sprouts, placed on an agar layer in 24-well microtiter plates were treated with aqueous test solutions prepared from 10′000 ppm DMSO stock solutions by spraying. After drying, the plates were infested with L2 larvae (6 to 10 per well). The samples were assessed for mortality and growth inhibition in comparison to untreated samples 4 days after infestation. The following compounds gave an effect of at least 80% in at least one of the two categories (mortality or growth inhibition) at an application rate of 200 ppm: P1.1, P1.2, P1.6, P1.7, P1.8, P1.9, P1.10, P1.13, P1.14, P1.15, P1.16, P1.17 and P1.18.

Data set [4] relates to Spodoptera littoralis (Egyptian cotton leaf worm). Briefly: Activity against Spodoptera littoralis, systemic via lettuce roots in agar (Example B4). Conditions: 144 h, 12.5 ppm in agar, uptake by lettuce roots, eggs, 6 days after infestation, read-out: control in at least one of the three categories (mortality, anti-feedancy or growth inhibition). In kind it is in vivo. An excerpt: Example B4: Activity Against Spodoptera littoralis (Egyptian Cotton Leaf Worm)
Test compounds were applied by pipette from 10′000 ppm DMSO stock solutions into 24-well plates and mixed with agar. Lettuce seeds were placed on the agar and the multi well plate was closed by another plate which contains also agar. After 7 days the roots have absorbed the compound and the lettuce has grown into the lid plate. The lettuce leafs were now cut off into the lid plate. Spodoptera eggs were pipetted through a plastic stencil on a humid gel blotting paper and the plate closed with it. The samples were assessed for mortality, anti-feedant effect and growth inhibition in comparison to untreated samples 6 days after infestation. The following compound gave an effect of at least 80% control in at least one of the three categories (mortality, anti-feedancy or growth inhibition) at an application rate of 12.5 ppm: P1.17 and P1.18.

The test system of data set [5] is Myzus persicae (green peach aphid). Briefly: Activity against Myzus persicae, sunflower leaf disc spray (Example B5). Conditions: foliar, 144 h, mixed-age aphid population on sunflower leaf discs, 6 days after infestation. It counts as in vivo. How it is done: Example B5: Activity Against Myzus persicae (Green Peach Aphid)
Sunflower leaf discs were placed on agar in a 24-well microtiter plate and sprayed with aqueous test solutions prepared from 10′000 ppm DMSO stock solutions. After drying, the leaf discs were infested with an aphid population of mixed ages. The samples were assessed for mortality 6 days after infestation.

Data set [6] deals with Tetranychus urticae (two-spotted spider mite). Briefly: whole plant or invertebrate. The settings on record: foliar, 192 h. It counts as in vivo. How it is done:
Example B8: Activity Against Tetranychus urticae (Two-Spotted Spider Mite)
Bean leaf discs on agar in 24-well microtiter plates were sprayed with aqueous test solutions prepared from 10′000 ppm DMSO stock solutions. After drying the leaf discs were infested with a mite population of mixed ages. The samples were assessed for mortality on mixed population (mobile stages) 8 days after infestation.

Data set [7] concerns Bemisia tabaci (cotton white fly). Briefly: Activity against Bemisia tabaci, cotton leaf disc spray (Example B6). In kind it is in vivo. Conditions: foliar, 144 h, adult white flies on cotton leaf discs, 6 days after incubation. How it is done:
Example B6: Activity Against Bemisia tabaci (Cotton White Fly)
Cotton leaf discs were placed on agar in 24-well microtiter plates and sprayed with aqueous test solutions prepared from 10′000 ppm DMSO stock solutions. After drying the leaf discs were infested with adult white flies. The samples were checked for mortality 6 days after incubation.

The subject of data set [8] is Euschistus heros (neotropical brown stink bug). Kind of data set: Activity against Euschistus heros, soybean leaf spray (Example B7). In kind it is in vivo. Conditions: 120 h, N-2 nymphs on soybean leaf, 5 days after infestation. How it is done: Example B7: Activity Against Euschistus heros (Neotropical Brown Stink Bug)
Soybean leaf on agar in 24-well microtiter plates were sprayed with aqueous test solutions prepared from 10′000 ppm DMSO stock solutions. After drying the leaf were infested with N-2 nymphs. The samples were assessed for mortality 5 days after infestation.

Data set [9] relates to Thrips tabaci (onion thrips). Briefly: Activity against Thrips tabaci, sunflower leaf disc spray (Example B9). It counts as in vivo. Conditions: foliar, 144 h, mixed-age thrips population on sunflower leaf discs, 6 days after infestation. How it is done:
Example B9: Activity Against Thrips tabaci (Onion Thrips)
Sunflower leaf discs were placed on agar in 24-well microtiter plates and sprayed with aqueous test solutions prepared from 10′000 ppm DMSO stock solutions. After drying the leaf discs were infested with a thrips population of mixed ages. The samples were assessed for mortality 6 days after infestation.

Consider `CCS(=O)(=O)c1cc(C(F)(F)F)cnc1-n1cc(-c2cncc(C(F)(F)F)c2)cn1` [Compound P1.18], for which, in data set [1], the percent control (mortality, anti-feedant effect or growth inhibition) at 200 ppm was at least 80%. The percent effect (mortality or growth inhibition) at 200 ppm in data set [2] and in data set [3] was at least 80% throughout. For the same compound, the percent control (mortality, anti-feedant effect or growth inhibition) at 12.5 ppm in data set [4] is at least 80%. The same compound gave a mortality at 200 ppm in data set [5] of at least 80%.

With `CCS(=O)(=O)c1cc(C(F)(F)F)cnc1-n1cc(-c2ccc(C(F)(F)F)nc2)cn1` [Compound P1.7], in data set [1], the percent control (mortality, anti-feedant effect or growth inhibition) at 200 ppm is at least 80%. For the same compound, the percent effect (mortality or growth inhibition) at 200 ppm in data set [2] and in data set [3] was at least 80% throughout.

As for `CCSc1cc(C(F)(F)F)cnc1-n1ncc(-c2cccc(C(F)(F)F)c2)c1C` [Compound P1.1, 3-ethylsulfanyl-2-[5-methyl-4-[3-(trifluoromethyl)phenyl]pyrazol-1-yl]-5-(trifluoromethyl)pyridine], the percent effect (mortality or growth inhibition) at 200 ppm in [3] was at least 80%. This compound also registered a mortality at 200 ppm in [6] of at least 80%.

Regarding `CCS(=O)(=O)c1cc(C(F)(F)F)cnc1-n1cc(-c2cccc(C(F)(F)F)c2)cn1` [Compound P1.6], the percent control (mortality, anti-feedant effect or growth inhibition) at 200 ppm in data set [1] was at least 80%. For the same compound, the percent effect (mortality or growth inhibition) at 200 ppm in data set [2] and in [3] was at least 80% throughout.

In turn, `CCSc1cccnc1-n1cc(-c2ccc(C(F)(F)F)nc2)cn1` [Compound P1.19, 3-ethylsulfanyl-2-[4-[6-(trifluoromethyl)-3-pyridyl]pyrazol-1-yl]pyridine] registered a melting point of 121 to 123 °C.

For the compound `CCS(=O)(=O)c1cc(C(F)(F)F)ccc1-n1ncc(-c2cccc(C(F)(F)F)c2)c1C` [Compound P1.16], in data set [1], the percent control (mortality, anti-feedant effect or growth inhibition) at 200 ppm was at least 80%. For the same compound, the percent effect (mortality or growth inhibition) at 200 ppm in data set [2] and in [3] was at least 80% in each case. The mortality at 200 ppm in data set [5], in data set [7] and in data set [8] was at least 80% each time.

Regarding `CCSc1cc(C(F)(F)F)cnc1-n1ncc(-c2ccc(C(F)(F)F)cc2)c1C` [Compound P1.4], the melting point is 113 to 114 °C.

Turning to `CCS(=O)(=O)c1cc(C(F)(F)F)cnc1-n1cc(-c2ccc(C(F)(F)F)cc2)cn1` [Compound P1.3, 3-ethylsulfonyl-5-(trifluoromethyl)-2-[4-[4-(trifluoromethyl)phenyl]pyrazol-1-yl]pyridine], in data set [1], the percent control (mortality, anti-feedant effect or growth inhibition) at 200 ppm was at least 80%. In data set [2], the percent effect (mortality or growth inhibition) at 200 ppm was at least 80%.

As to `CCS(=O)(=O)c1cc(C(F)(F)F)ccc1-n1cc(-c2cc(C(F)(F)F)ccn2)cn1` [Compound P1.10, 2-[1-[2-ethylsulfonyl-4-(trifluoromethyl)phenyl]pyrazol-4-yl]-4-(trifluoromethyl)pyridine], in data set [1], the percent control (mortality, anti-feedant effect or growth inhibition) at 200 ppm was at least 80%. In addition, the percent effect (mortality or growth inhibition) at 200 ppm in data set [3] was at least 80%. In [5], this compound registered a mortality at 200 ppm of at least 80%.

Take `CCS(=O)(=O)c1cc(C(F)(F)F)ccc1-n1cc(-c2cccc(C(F)(F)F)c2)cn1` [Compound P1.9]: in [1], the percent control (mortality, anti-feedant effect or growth inhibition) at 200 ppm is at least 80%. In addition, the percent effect (mortality or growth inhibition) at 200 ppm in [2] and in data set [3] was at least 80% throughout.

Turning to `CCS(=O)(=O)c1cc(C(F)(F)F)ccc1-n1cc(-c2ccc(C(F)(F)F)cc2)cn1` [Compound P1.13], the percent control (mortality, anti-feedant effect or growth inhibition) at 200 ppm in [1] is at least 80%. In addition, the percent effect (mortality or growth inhibition) at 200 ppm in data set [2] and in data set [3] was at least 80% each time. For the same compound, the mortality at 200 ppm in data set [8] was at least 80%.

As for `CCS(=O)(=O)c1cc(C(F)(F)F)cnc1-n1cc(-c2cccc(SC(F)(F)F)c2)cn1` [Compound P1.12], in [1], the percent control (mortality, anti-feedant effect or growth inhibition) at 200 ppm is at least 80%.

Regarding `CCS(=O)(=O)c1cc(C(F)(F)F)ccc1-n1ncc(-c2ccc(C(F)(F)F)cc2)c1C` [Compound P1.15, 1-[2-ethylsulfonyl-4-(trifluoromethyl)phenyl]-5-methyl-4-[4-(trifluoromethyl)phenyl]pyrazole], in data set [1], the percent control (mortality, anti-feedant effect or growth inhibition) at 200 ppm was at least 80%. Further, the percent effect (mortality or growth inhibition) at 200 ppm in [2] and in data set [3] was at least 80% in each case. In addition, the mortality at 200 ppm in data set [5], in [7] and in data set [9] was at least 80% in each case.

As for `CCS(=O)(=O)c1cc(C(F)(F)F)cnc1-n1ncc(-c2cccc(C(F)(F)F)c2)c1C` [Compound P1.2, 3-ethylsulfonyl-2-[5-methyl-4-[3-(trifluoromethyl)phenyl]pyrazol-1-yl]-5-(trifluoromethyl)pyridine], the percent control (mortality, anti-feedant effect or growth inhibition) at 200 ppm in data set [1] was at least 80%. In data set [3], the percent effect (mortality or growth inhibition) at 200 ppm was at least 80%.

With `CCS(=O)(=O)c1cc(C(F)(F)F)cnc1-n1ncc(-c2ccc(C(F)(F)F)cc2)c1C` [Compound P1.5], the melting point was in the range of 152 to 154 °C.

As to `CCS(=O)(=O)c1cc(C(F)(F)F)cnc1-n1cc(-c2ccc(SC(F)(F)F)cc2)cn1` [Compound P1.11], the melting point is 181 to 182 °C.

Regarding `CCS(=O)(=O)c1cc(C(F)(F)F)cnc1-n1cc(-c2cc(C(F)(F)F)ccn2)cn1` [Compound P1.8], the percent control (mortality, anti-feedant effect or growth inhibition) at 200 ppm in [1] is at least 80%. Besides, the percent effect (mortality or growth inhibition) at 200 ppm in data set [2] and in data set [3] was at least 80% each time.

Consider `CCS(=O)(=O)c1cc(C(F)(F)F)ccc1-n1cc(-c2cncc(C(F)(F)F)c2)cn1` [Compound P1.17], for which the percent control (mortality, anti-feedant effect or growth inhibition) at 200 ppm in data set [1] was at least 80%. For the same compound, the percent effect (mortality or growth inhibition) at 200 ppm in data set [2] and in data set [3] was at least 80% throughout. Besides, the percent control (mortality, anti-feedant effect or growth inhibition) at 12.5 ppm in [4] is at least 80%. Further, the mortality at 200 ppm in data set [5], in data set [7] and in [8] was at least 80% throughout.

The mortality is the share of the test organisms that died. One may read the melting point as the temperature of the solid-liquid transition.
